# Patent US11628144B2, “Iniparib formulations and uses thereof” (TriAct Therapeutics, Inc., priority 2017, dated 2023)
# Experiments:
# [1] = Solubility of iniparib in purified water; format: physicochemical
# [2] = biological target: poly [ADP-ribose] polymerase 1 (PARP1) (Homo sapiens, UniProt P09874); settings: observed in several studies; cited from earlier work
# [3] = tissues including brain and cerebrospinal fluid (CSF); cited from earlier work
# [4] = test system: cancer cells, including drug resistant cell lines; settings: cited from earlier work
# Sequence of poly [ADP-ribose] polymerase 1 (PARP1) (P09874 whole entry, species assumed): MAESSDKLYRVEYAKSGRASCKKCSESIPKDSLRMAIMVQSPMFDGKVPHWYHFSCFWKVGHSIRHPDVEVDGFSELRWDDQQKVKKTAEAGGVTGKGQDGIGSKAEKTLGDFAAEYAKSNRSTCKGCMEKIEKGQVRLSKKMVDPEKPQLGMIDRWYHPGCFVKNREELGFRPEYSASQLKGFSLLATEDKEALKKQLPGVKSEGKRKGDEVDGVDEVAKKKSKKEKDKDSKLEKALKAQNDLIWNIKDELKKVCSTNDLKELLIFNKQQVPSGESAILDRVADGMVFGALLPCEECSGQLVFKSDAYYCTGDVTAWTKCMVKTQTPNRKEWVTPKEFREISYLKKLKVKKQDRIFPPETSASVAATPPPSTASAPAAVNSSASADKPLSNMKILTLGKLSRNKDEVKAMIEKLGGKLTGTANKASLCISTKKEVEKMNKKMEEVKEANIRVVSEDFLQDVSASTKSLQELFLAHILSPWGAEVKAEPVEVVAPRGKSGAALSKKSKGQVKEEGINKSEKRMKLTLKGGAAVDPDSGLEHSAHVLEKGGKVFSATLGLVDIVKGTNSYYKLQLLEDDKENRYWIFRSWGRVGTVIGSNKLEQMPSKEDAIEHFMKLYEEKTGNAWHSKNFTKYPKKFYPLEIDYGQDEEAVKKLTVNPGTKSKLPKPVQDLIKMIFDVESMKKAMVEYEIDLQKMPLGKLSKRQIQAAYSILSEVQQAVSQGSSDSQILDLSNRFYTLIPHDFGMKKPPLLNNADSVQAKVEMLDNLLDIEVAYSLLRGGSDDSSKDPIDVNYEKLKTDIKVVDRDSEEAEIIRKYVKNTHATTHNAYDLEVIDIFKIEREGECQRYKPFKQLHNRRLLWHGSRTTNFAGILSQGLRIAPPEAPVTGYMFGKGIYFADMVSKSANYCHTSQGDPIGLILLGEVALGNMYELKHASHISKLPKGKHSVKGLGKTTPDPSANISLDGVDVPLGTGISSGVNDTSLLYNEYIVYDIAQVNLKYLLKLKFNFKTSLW
compound,measurement,setting,value
"NC(=O)c1ccc(I)c([N+](=O)[O-])c1 [Iniparib, 4-iodo-3-nitrobenzamide]",solubility,[1],~182 µg/mL
same,potency against PARP1,[2],low potency
same,distribution into tissues,[3],"distributes rapidly and widely into tissues, including the brain and cerebrospinal fluid (CSF)"
same,activity against cancer cells in vitro,[4],active against a broad range of cancer cells in vitro
